In US20250197372A1 (priority 2020, published 2025):

Each molecule was assayed against T1, recombinant alpha-glucosidase I (human full-length glucosidase I, Glu 1) (Homo sapiens, UniProt Q13724) (assay: Alpha-glucosidase I assay (Amplex Red glucose detection, synthetic trisaccharide substrate)). Details: Glucosidase 1; read-out: Glu 1 IC50.
T1 construct: 6-His (C); made in house; host or cells: HEK-293T cells transduced with BacMam virus (virus raised in Sf9)
T1 sequence (Q13724 1-837): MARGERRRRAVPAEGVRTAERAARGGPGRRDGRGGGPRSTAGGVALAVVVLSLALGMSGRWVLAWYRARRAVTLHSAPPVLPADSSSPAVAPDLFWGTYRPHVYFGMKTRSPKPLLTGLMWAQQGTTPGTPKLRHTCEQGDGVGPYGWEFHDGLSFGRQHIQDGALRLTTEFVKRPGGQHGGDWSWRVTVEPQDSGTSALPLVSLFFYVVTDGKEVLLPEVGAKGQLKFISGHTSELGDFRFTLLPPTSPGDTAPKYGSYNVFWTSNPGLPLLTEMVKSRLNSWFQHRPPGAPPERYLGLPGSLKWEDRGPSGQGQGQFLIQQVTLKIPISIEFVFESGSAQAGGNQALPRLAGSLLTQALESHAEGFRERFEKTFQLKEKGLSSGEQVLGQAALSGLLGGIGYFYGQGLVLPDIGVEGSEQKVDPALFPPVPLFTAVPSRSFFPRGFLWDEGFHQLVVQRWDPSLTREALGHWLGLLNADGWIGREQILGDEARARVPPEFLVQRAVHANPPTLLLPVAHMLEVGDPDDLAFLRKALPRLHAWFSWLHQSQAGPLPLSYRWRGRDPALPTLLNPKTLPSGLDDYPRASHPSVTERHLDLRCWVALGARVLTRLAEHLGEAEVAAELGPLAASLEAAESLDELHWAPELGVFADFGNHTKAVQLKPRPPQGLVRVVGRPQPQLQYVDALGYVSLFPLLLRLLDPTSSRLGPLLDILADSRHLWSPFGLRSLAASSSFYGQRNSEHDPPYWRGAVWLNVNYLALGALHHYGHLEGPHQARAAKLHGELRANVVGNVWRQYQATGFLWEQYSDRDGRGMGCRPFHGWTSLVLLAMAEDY
Format: biochemical
Summary of the method: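 Compound dilution series incubated 60 min at 37° C with recombinant His-tagged human glucosidase I ([…]), after which trisaccharide substrate analog was added for 90 min at 37° C. Reaction quenched with 1.5M Tris pH 8; D-glucose detected by Amplex Red fluorescence, 560/590 nm. 4-PL curve fit of percent inhibition gave IC50.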
Cc1cc(NCc2cnc(CN3C[C@H](O)[C@@H](O)[C@H](O)[C@H]3CO)cn2)cc(N2CCOCC2)c1 [Compound 1332, (2R,3R,4R,5S)-2-(hydroxymethyl)-1-{[5-({[3-methyl-5-(morpholin-4-yl)phenyl]amino}methyl)pyrazin-2-yl]methyl}piperidine-3,4,5-triol] gave an IC50 of 2820 nM. CC#Cc1ccc(NCCCCCCN2C[C@H](O)[C@@H](O)[C@H](O)[C@H]2CO)c([N+](=O)[O-])c1 [Compound 1290, (2R,3R,4R,5S)-2-(hydroxymethyl)-1-(6-{[2-nitro-4-(prop-1-yn-1-yl)phenyl]amino}hexyl)piperidine-3,4,5-triol] gave an IC50 of 36 nM. Work on COc1ccc(CCCCCCCN2C[C@H](O)[C@@H](O)[C@H](O)[C@H]2CO)cc1 [Compound 1309, (2R,3R,4R,5S)-2-(hydroxymethyl)-1-[7-(4-methoxyphenyl)heptyl]piperidine-3,4,5-triol] yielded an IC50 of 700 nM. For [N-]=[N+]=Nc1ccc(NCCN2CC(OCCN3C[C@H](O)[C@@H](O)[C@H](O)[C@H]3CO)C2)c([N+](=O)[O-])c1 [Compound 1271, (2R,3R,4R,5S)-1-{2-[(1-{2-[(4-azido-2-nitrophenyl)amino]ethyl}azetidin-3-yl)oxy]ethyl}-2-(hydroxymethyl)piperidine-3,4,5-triol], the IC50 was 1070 nM. Molecule CN(C)Cc1ccc(NCCCCCCN2C[C@H](O)[C@@H](O)[C@H](O)[C@H]2CO)c(C(F)(F)F)c1 [Compound 1259, (2R,3R,4R,5S)-1-[6-({4-[(dimethylamino)methyl]-2-(trifluoromethyl)phenyl}amino)hexyl]-2-(hydroxymethyl)piperidine-3,4,5-triol] has an IC50 of 330 nM. CN(C)Cc1ccc(NCCCCCCN2C[C@H](O)[C@@H](O)[C@H](O)[C@H]2CO)c(C(=O)O)c1 [Compound 1245, 5-[(dimethylamino)methyl]-2-({6-[(2R,3R,4R,5S)-3,4,5-trihydroxy-2-(hydroxymethyl)piperidin-1-yl]hexyl}amino)benzoic acid] gave an IC50 of 292 nM. For CS(=O)(=O)c1cc(NCc2cccc(CN3C[C@H](O)[C@@H](O)[C@H](O)[C@H]3CO)c2)cc(N2CCOCC2)c1 [Compound 1036, (2R,3R,4R,5S)-2-(hydroxymethyl)-1-{[3-({[3-methanesulfonyl-5-(morpholin-4-yl)phenyl]amino}methyl)phenyl]methyl}piperidine-3,4,5-triol], the IC50 was 30 nM. In the case of Cc1cc(Br)cc(NCc2ccc(CN3C[C@H](O)[C@@H](O)[C@H](O)[C@H]3CO)cc2)c1 [Compound 1024, (2R,3R,4R,5S)-1-[(4-{[(3-bromo-5-methylphenyl)amino]methyl}phenyl)methyl]-2-(hydroxymethyl)piperidine-3,4,5-triol], the IC50 is reported as 8 nM. Work on Cc1cc(NCc2cccc(CN3C[C@H](O)[C@@H](O)[C@H](O)[C@H]3CO)n2)cc(N2CCOCC2)c1 [Compound 1336, (2R,3R,4R,5S)-2-(hydroxymethyl)-1-{[6-({[3-methyl-5-(morpholin-4-yl)phenyl]amino}methyl)pyridin-2-yl]methyl}piperidine-3,4,5-triol] yielded an IC50 of 30300 nM. Molecule Cc1cc(NCc2cccc(CN3C[C@H](O)[C@@H](O)[C@H](O)[C@H]3CO)c2)cc(-c2ccc[nH]2)c1 [Compound 1033, (2R,3R,4R,5S)-2-(hydroxymethyl)-1-{[3-({[3-methyl-5-(1H-pyrrol-2-yl)phenyl]amino}methyl)phenyl]methyl}piperidine-3,4,5-triol] has an IC50 of 9 nM. Nc1ccc(NCCc2ccccc2CCN2C[C@H](O)[C@@H](O)[C@H](O)[C@H]2CO)c([N+](=O)[O-])c1Cl [Compound 1239, (2R,3R,4R,5S)-1-[2-(2-{2-[(4-amino-3-chloro-2-nitrophenyl)amino]ethyl}phenyl)ethyl]-2-(hydroxymethyl)piperidine-3,4,5-triol] showed an IC50 of 1440 nM. With N#CCc1ccc(NCCCCCCN2C[C@H](O)[C@@H](O)[C@H](O)[C@H]2CO)c([N+](=O)[O-])c1 [Compound 1299, 2-[3-nitro-4-({6-[(2R,3R,4R,5S)-3,4,5-trihydroxy-2-(hydroxymethyl)piperidin-1-yl]hexyl}amino)phenyl]acetonitrile] the IC50 was 189 nM. CS(C)=NS(=O)(=O)c1cc(-c2ncccn2)ccc1NCCCCCCN1C[C@H](O)[C@@H](O)[C@H](O)[C@H]1CO [Compound 1247, N-(dimethyl-2-sulfanylidene)-5-(pyrimidin-2-yl)-2-({6-[(2R,3R,4R,5S)-3,4,5-trihydroxy-2-(hydroxymethyl)piperidin-1-yl]hexyl}amino)benzene-1-sulfonamide] showed an IC50 of 493 nM. Cc1cc(NCc2cccc(CN3C[C@H](O)[C@@H](O)[C@H](O)[C@H]3CO)n2)cc(-c2ncccn2)c1 [Compound 1322, (2R,3R,4R,5S)-2-(hydroxymethyl)-1-{[6-({[3-methyl-5-(pyrimidin-2-yl)phenyl]amino}methyl)pyridin-2-yl]methyl}piperidine-3,4,5-triol] gave an IC50 of 3120 nM. Cc1cc(NCc2ccc(CN3C[C@H](O)[C@@H](O)[C@H](O)[C@H]3CO)cc2)cc(-n2nccn2)c1 [Compound 1316, (2R,3R,4R,5S)-2-(hydroxymethyl)-1-{[4-({[3-methyl-5-(2H-1,2,3-triazol-2-yl)phenyl]amino}methyl)phenyl]methyl}piperidine-3,4,5-triol] was tested, and the IC50 was 16 nM. [N-]=[N+]=Nc1ccc(NCCC(O)C(O)CCN2C[C@H](O)[C@@H](O)[C@H](O)[C@H]2CO)c([N+](=O)[O-])c1 (stereo partly drawn) [Compound 1270, (2R,3R,4R,5S)-1-{6-[(4-azido-2-nitrophenyl)amino]-3,4-dihydroxy-hexyl}-2-(hydroxymethyl)piperidine-3,4,5-triol] showed an IC50 of 358 nM. With CS(=O)(=O)c1cc(Br)cc(NCc2ccc(CN3C[C@H](O)[C@@H](O)[C@H](O)[C@H]3CO)cc2)c1 [Compound 1025, (2R,3R,4R,5S)-1-[(4-{[(3-bromo-5-methanesulfonylphenyl)amino]methyl}phenyl)methyl]-2-(hydroxymethyl)piperidine-3,4,5-triol] the IC50 was 21 nM. OC[C@@H]1[C@@H](O)[C@H](O)[C@@H](O)CN1Cc1cnc(CNc2cc(-c3ncccn3)cc(C3CC3)c2)cn1 [Compound 1329, (2R,3R,4R,5S)-1-{[5-({[3-cyclopropyl-5-(pyrimidin-2-yl)phenyl]amino}methyl)pyrazin-2-yl]methyl}-2-(hydroxymethyl)piperidine-3,4,5-triol] was tested, and the IC50 was 1870 nM. OC[C@@H]1[C@@H](O)[C@H](O)[C@@H](O)CN1Cc1cccc(CNc2ccc(Br)cc2)c1 [Compound 1027, (2R,3R,4R,5S)-1-[(3-{[(4-bromophenyl)amino]methyl}phenyl)methyl]-2-(hydroxymethyl)piperidine-3,4,5-triol] was tested, and the IC50 was 22 nM. Cc1nc(=O)c2cc(-c3ncccn3)ccc2n1CCCCCCN1C[C@H](O)[C@@H](O)[C@H](O)[C@H]1CO [Compound 1246, 2-methyl-6-(pyrimidin-2-yl)-1-{6-[(2R,3R,4R,5S)-3,4,5-trihydroxy-2-(hydroxymethyl)piperidin-1-yl]hexyl}-1,4-dihydroquinazolin-4-one] was tested, and the IC50 was 112 nM. Molecule [N-]=[N+]=Nc1ccc(NCCOCCN2C[C@H](O)[C@@H](O)[C@H](O)[C@H]2CO)c([N+](=O)[O-])c1 [Compound 1255, (2R,3R,4R,5S)-1-(2-{2-[(4-azido-2-nitrophenyl)amino]ethoxy}ethyl)-2-(hydroxymethyl)piperidine-3,4,5-triol] has an IC50 of 2010 nM.
